The target of this assay is T1, human CXCR3 (isoform 1) (Homo sapiens, UniProt P49682).
T1 construct: expressed in transfected cells; host or cells: COS-7 cells, transient (pcDNA3.1+ vector, calcium phosphate)
T1 sequence (P49682 1-368): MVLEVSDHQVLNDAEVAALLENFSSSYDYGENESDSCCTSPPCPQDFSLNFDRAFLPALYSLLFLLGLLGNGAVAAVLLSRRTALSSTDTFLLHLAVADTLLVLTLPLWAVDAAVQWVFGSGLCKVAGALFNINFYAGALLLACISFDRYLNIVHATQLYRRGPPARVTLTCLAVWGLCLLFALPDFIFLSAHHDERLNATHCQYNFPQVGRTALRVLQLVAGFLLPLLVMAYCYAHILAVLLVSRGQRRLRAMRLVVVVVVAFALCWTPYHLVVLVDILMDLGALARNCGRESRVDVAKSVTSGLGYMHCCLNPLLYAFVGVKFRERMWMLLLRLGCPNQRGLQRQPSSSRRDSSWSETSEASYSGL
The experiment in a line: [125I]CXCL11 radioligand displacement assay. It counts as binding. The method, then: [^125I]CXCL11 radioligand displacement assay: Oxidative iodination. The CXCL11 protein (purchased from PeproTech as the mature form of isoform 1) was labeled in-house with the ^125I isotope (purchased from Perkin-Elmer, in 10 µM NaOH, pH 8-11) using the Chloramine-T method^36. CXCL11 was dissolved in 300 mM phosphate buffer, and 0.4 mCi ^125I was added to 0.6 nmol (10 µl) of the protein. 30 µl phosphate buffer supplemented with 30 mgl^-1 Chloramine-T was added slowly over a 5 min period while stirring, and the reaction was quenched by adding 400 µl H2O with 0.1% trifluoroacetic acid (TFA). The product was purified by reverse-phase HPLC, using a C18 column and a gradient from H2O with 0.1% TFA (buffer A) to acetonitrile with 0.1% TFA (buffer B). After allowing the passage of 8 mL flow-through at 20 % buffer B, CXCL11 is eluted by increasing buffer B to 50 % over a flow-volume of 40 mL, after which any possible remains of protein are eluted by further increasing buffer B to 80 % across 10 mL flow-through. The flow-through is collected in 1 mL aliquots, and the radioligand is identified in those aliquots by gamma radiation intensity, and verified with a preliminary competitive binding assay setup.
Cell culture and transfection,. Cos-7 cells expressing human CXCR3 (isoform 1) were used for binding assays. […]
(In general: In a radioligand displacement assay an active substance lowers the binding of a labelled ligand.)

Turning to `CC(C)(C)OC(=O)N[C@@H](CCCCNC(=O)[C@@H]1Cc2ccccc2CN1C(=O)CCC(=O)c1ccccc1)C(=O)NCC(c1ccccc1)c1ccccc1` [Compound 11, Tert-butyl ((S)-1-((2,2-diphenylethyl)amino)-1-oxo-6-((S)-2-(4-oxo-4-phenylbutanoyl)-1,2,3,4-tertahydroisoquinoline-3-carboxamido)hexan-2-yl)carbamate], the “effect on the binding affinity of CXCL11 on CXCR3” value is recorded as “no effect on the binding affinity of CXCL11 on CXCR3”.

The record behind these values is EP3156398A1, “AGONISTS OF THE CHEMOKINE RECEPTOR CXCR3” (Friedrich-Alexander-Universität Erlangen-Nürnberg, priority 2015, dated 2017).
